Reference: patent US11053238B2, “Benzimidazole derivatives, preparation methods and uses thereof” (BETTA PHARMACEUTICALS CO., LTD, priority 2016, dated 2021)
Like-named read-outs stand apart in the source and are kept apart here.

Key:
CDK4/CycD3 = CDK4/CycD3 (Homo sapiens (Human), UniProt P11802); assay: CDK kinase assay (Caliper, FAM-labeled peptide)
[1] = system: Human colorectal cancer cells (colo-205); assay: MTS cell viability assay (cell proliferation); format: cell-based; settings: colo-205 cells, 7 days of exposure
Procedure: Effects of test compounds on in vitro proliferation were measured by MTS cell viability assay.
Human colorectal cancer cells (colo-205) is expanded in culture (colo-205 is grown in DMEM media with 12% FBS, 1% P/S, and 1% L-glutamine).
MTS Cell Viability Assay:
1. Seed cells at density of 4×10^3 cells per well of 96-wells plates, grow for 24 h;
2. Add varying concentrations of test compounds to the cells;
3. Incubate for 7 days of exposure;
4. Prepare reagents following the instructions in the Cell Proliferation Assay kit (Promega);
5. Change to serum-free medium with a final volume of 100 μl/well. Prepare a set of wells with medium only for background subtraction;
6. Add 20 μl MTS solution containing PMS to each well (final concentration of MTS will be 0.33 mg/mL);
7. Incubate 1 to 4 h at 37° C. in a humidified, 5% CO2 atmosphere;
8. Record absorbance at 490 nm using VICTOR™ X5 plate reader (PerkinElmer).
All experimental points were set up in three wells and all experiments were repeated at least three times.

CDK9/cyclin T1 = CDK9/cyclin T1 (Homo sapiens (Human), UniProt P50750); assay: 33P-ATP radiometric CDK kinase inhibitory activity and selectivity test; format: biochemical
CDK9/cyclin T1, sequence (P50750 whole entry, species assumed): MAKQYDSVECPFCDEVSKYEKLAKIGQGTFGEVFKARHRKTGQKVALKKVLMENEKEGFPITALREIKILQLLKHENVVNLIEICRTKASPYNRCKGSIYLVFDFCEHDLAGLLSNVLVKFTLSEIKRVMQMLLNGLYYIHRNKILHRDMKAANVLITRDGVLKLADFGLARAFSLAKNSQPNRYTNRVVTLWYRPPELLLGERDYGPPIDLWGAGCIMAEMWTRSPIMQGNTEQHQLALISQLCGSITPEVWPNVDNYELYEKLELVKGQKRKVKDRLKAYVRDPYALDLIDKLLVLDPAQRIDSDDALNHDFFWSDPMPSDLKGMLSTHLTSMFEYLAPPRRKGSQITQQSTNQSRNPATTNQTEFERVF
CDK9/cyclin T1, sequence (O60563 whole entry partner, species assumed): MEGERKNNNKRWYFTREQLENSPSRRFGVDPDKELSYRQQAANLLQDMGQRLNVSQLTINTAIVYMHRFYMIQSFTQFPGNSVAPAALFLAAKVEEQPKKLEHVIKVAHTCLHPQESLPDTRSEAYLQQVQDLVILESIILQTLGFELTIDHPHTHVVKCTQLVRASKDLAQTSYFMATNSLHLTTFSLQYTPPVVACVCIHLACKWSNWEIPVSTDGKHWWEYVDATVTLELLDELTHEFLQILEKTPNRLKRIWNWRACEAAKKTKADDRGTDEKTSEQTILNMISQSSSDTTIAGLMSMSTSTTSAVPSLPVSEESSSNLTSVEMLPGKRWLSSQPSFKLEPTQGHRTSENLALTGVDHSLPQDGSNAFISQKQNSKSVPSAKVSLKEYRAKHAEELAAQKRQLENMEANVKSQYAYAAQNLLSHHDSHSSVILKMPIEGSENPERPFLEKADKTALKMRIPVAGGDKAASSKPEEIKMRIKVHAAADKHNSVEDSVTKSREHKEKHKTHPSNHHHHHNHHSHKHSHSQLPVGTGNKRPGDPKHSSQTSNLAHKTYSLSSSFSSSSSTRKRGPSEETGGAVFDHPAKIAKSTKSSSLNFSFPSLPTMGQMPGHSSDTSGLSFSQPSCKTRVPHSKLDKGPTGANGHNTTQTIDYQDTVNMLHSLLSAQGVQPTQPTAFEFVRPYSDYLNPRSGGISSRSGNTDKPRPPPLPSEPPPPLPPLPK
Excerpt: (§1) The mechanism of this method is shown in formula (II).
(§2) Data was processed with Prism4 Software (GraphPad), and the curve fitting formula was:
(§3) Y=Bottom+(Top−Bottom)/(1+10^((Log IC50−X)*HillSlope)); wherein, Y is percent inhibition (%); X is logarithm of concentration of the inhibitor.

CDK2/cyclin E = CDK2/cyclin E (Homo sapiens (Human), UniProt P24941); assay: as above; format: biochemical
Excerpt: as §1, §2, §3

JeKo-1 cells = assay: Tumor regression effect on JeKo-1 xenograft animal model; format: in vivo, NOD/SCID mice; settings: 10-100 mg/kg orally once a day, 19 days
Procedure: JeKo-1 cells were cultured in RPMI 1640 medium containing 20% fetal bovine serum. Exponentially growing JeKo-1 cells were collected and resuspended in PBS to a suitable concentration for NOD/SCID mice subcutaneous tumor inoculation. Seventy female mice were inoculated subcutaneously on the right with 5×10^6 JeKo-1 cells, resuspended in PBS and matrigel (1:1). When the average tumor volume reached 134 mm^3, the mice were randomly grouped according to the size of the tumor and were administrated. Forty-eight mice were divided into the experimental group, and the remaining twenty-two mice were not used for experiment. Tumor volume is calculated as: long diameter×short diameter^2/2. […] Efficacy is evaluated according to the relative tumor growth inhibition rate of TGI.
The higher the TGI (%) value illustrates the better the potency; and vice versa.

[2] = BALB/c mice, 200 mg/kg (qd); for observation (mortality) / Body weight (weight loss) / weight loss (in words): oral gavage; for Body weight (weight loss): vs vehicle control; for mice death in each group (6 mice): after treatment for 2 weeks
CDK2/CycA2 = CDK2/CycA2 (Homo sapiens (Human), UniProt P24941); assay: CDK kinase assay (Caliper, FAM-labeled peptide)
CDK6/cycD3 = CDK6/cycD3 (Homo sapiens (Human), UniProt Q00534); assay: CDK kinase assay (Caliper, FAM-labeled peptide); settings: read-out: IC50(CDK6); CDK6/cycD3, ATP 800 μM
CDK6/cycD3, sequence (Q00534 whole entry, species assumed): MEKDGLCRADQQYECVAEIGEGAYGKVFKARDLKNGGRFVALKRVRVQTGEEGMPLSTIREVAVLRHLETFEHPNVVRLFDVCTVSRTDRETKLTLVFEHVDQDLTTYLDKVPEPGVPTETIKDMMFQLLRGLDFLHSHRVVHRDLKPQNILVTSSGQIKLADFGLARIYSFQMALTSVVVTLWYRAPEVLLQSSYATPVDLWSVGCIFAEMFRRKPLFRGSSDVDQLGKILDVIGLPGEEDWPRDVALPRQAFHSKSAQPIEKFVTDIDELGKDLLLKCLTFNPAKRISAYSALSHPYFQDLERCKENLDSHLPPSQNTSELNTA
CDK6/cycD3, sequence (P30281 whole entry partner, species assumed): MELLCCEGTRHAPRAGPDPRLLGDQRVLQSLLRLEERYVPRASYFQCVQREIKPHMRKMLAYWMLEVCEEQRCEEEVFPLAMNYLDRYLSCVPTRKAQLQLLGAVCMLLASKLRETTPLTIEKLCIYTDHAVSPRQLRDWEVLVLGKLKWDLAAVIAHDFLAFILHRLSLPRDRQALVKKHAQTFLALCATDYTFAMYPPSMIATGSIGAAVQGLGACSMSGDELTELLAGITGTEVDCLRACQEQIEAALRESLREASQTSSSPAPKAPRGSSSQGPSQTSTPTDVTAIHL

[3] = IC50(CDK4), head-to-head comparison of substituent site, class symbols
[4] = 33P-ATP, P81 membrane, read-out: CDK kinase inhibitory activity IC50, CDK9/cyclin T1
[5] = text summary for CDK1/2/7/9, read-out: IC50 for inhibiting CDK9
[6] = 33P-ATP, P81 membrane, read-out: CDK kinase inhibitory activity IC50, CDK2/cyclin E
[7] = text summary for CDK1/2/7/9, read-out: IC50 for inhibiting CDK2

CDK4/CycD3, sequence (P11802 whole entry, species assumed): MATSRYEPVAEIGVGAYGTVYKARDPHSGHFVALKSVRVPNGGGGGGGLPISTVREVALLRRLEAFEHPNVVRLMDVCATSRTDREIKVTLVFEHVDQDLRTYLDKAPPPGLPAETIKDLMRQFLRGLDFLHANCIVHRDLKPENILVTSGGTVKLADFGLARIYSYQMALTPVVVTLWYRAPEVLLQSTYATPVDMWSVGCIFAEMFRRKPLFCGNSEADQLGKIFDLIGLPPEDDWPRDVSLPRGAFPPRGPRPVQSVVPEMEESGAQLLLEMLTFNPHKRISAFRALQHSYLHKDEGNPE
CDK4/CycD3, sequence (P30281 whole entry partner, species assumed): as the sequence (P30281 whole entry partner, species assumed) above

**Q.** With `CCN1CCN(Cc2ccc(Nc3ncc(F)c(-c4cc(F)c5nc6n(c5c4)CC(C)CC6)n3)nc2)CC1` (stereo not drawn) [Com. EX. No. 8, N-(5-((4-ethylpiperazin-1-yl)methyl)pyridin-2-yl)-5-fluoro-4-(6-fluoro-2-methyl-1,2,3,4-tetrahydrobenzo[4,5]imidazo[1,2-a]pyridin-8-yl) pyrimidin-2-amine] as the compound, how does the IC50 (CDK4/CycD3; [3]) read?
**A.** 1000 to 2000 nM

**Q.** For `CN1CCN(c2ccc(Nc3ncc(F)c(-c4cc(F)c5nc6n(c5c4)CCCC6)n3)nc2)CC1` [Com. EX. 2, 5-fluoro-4-(6-fluoro-1,2,3,4-tetrahydrobenzo[4,5]imidazo[1,2-a]pyridin-8-yl)-N-(5-(4-methylpiperazin-1-yl)pyridin-2-yl)pyrimidin-2-amine], which IC50 [1] is on record?
**A.** 8900 nM

**Q.** Which IC50 (CDK9/cyclin T1; [4]) does the source give for `CCN1CCN(Cc2ccc(Nc3ncc(F)c(-c4cc(F)c5nc6n(c5c4)C(C)CCC6)n3)nc2)CC1` (single isomer, unassigned) [Compound 2b, N-(5-((4-ethylpiperazin-1-yl)methyl)pyridin-2-yl)-5-fluoro-4-(6-fluoro-1-methyl-1,2,3,4-tetrahydrobenzo[4,5]imidazo[1,2-a]pyridin-8-yl)pyrimidin-2-amine] here?
**A.** 649 nM

**Q.** What about the IC50 (CDK9/cyclin T1; [5]) of the same compound?
**A.** > 400 nM

**Q.** What about the IC50 (CDK2/cyclin E; [6]) of the same compound?
**A.** 441 nM

**Q.** What about the IC50 (CDK2/cyclin E; [7]) of the same compound?
**A.** > 400 nM

**Q.** And the “anti-tumor activity (in words)” value (JeKo-1 cells)?
**A.** excellent anti-tumor activity

**Q.** And the “observation (mortality)” value [2]?
**A.** −

**Q.** And the “Body weight (weight loss)” value [2]?
**A.** * (weight loss less than 5%)

**Q.** What does the source list for `CCN1CCN(Cc2ccc(Nc3ncc(F)c(-c4cc(F)c5nc6n(c5c4)[C@H](C(C)C)COC6)n3)nc2)CC1` [Com. EX. 3b, (R)-N-(5-((4-ethylpiperazin-1-yl)methyl)pyridin-2-yl)-5-fluoro-4-(9-fluoro-4-isopropyl-3,4-dihydro-1 H-benzo[4,5]imidazo[2,1-c][1,4]oxazin-7-yl)pyrimidin-2-amine]?
**A.** mice death in each group (6 mice) [2]: 4; observation (mortality) [2]: +; weight loss (in words) [2]: much more weight loss; Body weight (weight loss) [2]: *** (weight loss more than 10% and less than 30%)

**Q.** With `CC1(C)CCCc2nc3c(F)cc(-c4nc(Nc5ccc(N6CCN(C7COC7)CC6)cn5)ncc4F)cc3n21` [Com. EX. 5, 5-fluoro-4-(6-fluoro-1,1-dimethyl-1,2,3,4-tetrahydrobenzo[4,5]imidazo[1,2-a]pyridin-8-yl)-N-(5-(4-(oxetan-3-yl)piperazin-1-yl)pyridin-2-yl)pyrimidin-2-amine, reference compound] as the compound, how does the IC50 (CDK2/CycA2) read?
**A.** 40 nM

**Q.** With `CC1CCCc2nc3c(F)cc(-c4ccnc(Nc5ccc(N6CCN(C)CC6)cn5)n4)cc3n21` (stereo not drawn) [Compound 1, 4-(6-fluoro-1-methyl-1,2,3,4-tetrahydrobenzo[4,5]imidazo[1,2-a]pyridin-8-yl)-N-(5-(4-methylpiperazin-1-yl)pyridin-2-yl)pyrimidin-2-amine] as the compound, how does the IC50 (CDK2/CycA2) read?
**A.** > 300 nM

**Q.** What about the IC50 [1] of the same compound?
**A.** 78 nM

**Q.** Which “weight loss (in words)” value [2] does the source give for `CCN1CCN(Cc2ccc(Nc3ncc(F)c(-c4cc(F)c5nc6n(c5c4)C(C)COC6)n3)nc2)CC1` (stereo not drawn) [Compound 16, N-(5-((4-ethylpiperazin-1-yl)methyl)pyridin-2-yl)-5-fluoro-4-(9-fluoro-4-methyl-3,4-dihydro-1H-benzo[4,5]imidazo[2,1-c][1,4]oxazin-7-yl)pyrimidin-2-amine] here?
**A.** almost little weight loss

**Q.** Which IC50 (CDK2/CycA2) does the source give for `CCN1CCN(Cc2ccc(Nc3ncc(F)c(-c4cc(F)c5nc6n(c5c4)C(C)CCC6)n3)nc2)CC1` (stereo not drawn) [Compound 2, N-(5-((4-ethylpiperazin-1-yl)methyl)pyridin-2-yl)-5-fluoro-4-(6-fluoro-1-methyl-1,2,3,4-tetrahydrobenzo[4,5]imidazo[1,2-a]pyridin-8-yl)pyrimidin-2-amine] here?
**A.** > 300 nM

**Q.** What about the IC50 (CDK9/cyclin T1; [4]) of the same compound?
**A.** 572 nM

**Q.** What about the IC50 (CDK9/cyclin T1; [5]) of the same compound?
**A.** > 400 nM

**Q.** What about the IC50 (CDK2/cyclin E; [6]) of the same compound?
**A.** 474 nM

**Q.** What about the IC50 (CDK2/cyclin E; [7]) of the same compound?
**A.** > 400 nM

**Q.** What about the IC50 [1] of the same compound?
**A.** 53 nM

**Q.** And the “weight loss (in words)” value [2]?
**A.** almost little weight loss

**Q.** With `CN1CCN(c2ccc(Nc3ncc(F)c(-c4cc(F)c5nc6n(c5c4)C4(CCC6)CC4)n3)nc2)CC1` [Com. EX. 1, 5-fluoro-4-(6-fluoro-3,4-dihydro-2 H-spiro[benzo[4,5]imidazo,[1,2-a]pyridine-1,1′-cyclopropan]-8-yl)-N-(5-(4-methylpiperazin-1-yl)pyridin-2-yl)pyrimidin-2-amine] as the compound, how does the IC50 [1] read?
**A.** 6640 nM

**Q.** Which IC50 [1] does the source give for `CCN1CCN(Cc2ccc(Nc3ncc(F)c(-c4cc(F)c5nc(C)n(C(C)C)c5c4)n3)nc2)CC1` [LY2835219, Abemaciclib] here?
**A.** 136 nM

**Q.** And the “observation (mortality)” value [2]?
**A.** −

**Q.** Which IC50 (CDK6/cycD3) does the source give for `CC1CCCn2c1nc1c(F)cc(-c3ccnc(Nc4ccc(N5CCN(C)CC5)cn4)n3)cc12` (stereo not drawn) [Com. EX. No. 7, 4-(6-fluoro-4-methyl-1,2,3,4-tetra hydrobenzo[4,5]imidazo[1,2-a]pyridin-8-yl)-N-(5-(4-methylpiperazin-1-yl)pyridin-2-yl)pyrimidin-2-a mine] here?
**A.** 110 nM

**Q.** What about the IC50 (CDK4/CycD3) of the same compound?
**A.** 57 nM

**Q.** With `CC1(C)CCCc2nc3c(F)cc(-c4nc(Nc5ccc(CN6CCNCC6)cn5)ncc4F)cc3n21` [Com. EX. 6, 5-fluoro-4-(6-fluoro-1,1-dimethyl-1,2,3,4-tetrahydrobenzo[4,5]imidazo[1,2-a]pyridin-8-yl)-N-(5-(piperazin-1-ylmethyl)pyridin-2-yl)pyri midin-2-amine, reference compound] as the compound, how does the IC50 (CDK2/CycA2) read?
**A.** 40 nM

**Q.** Which IC50 (CDK4/CycD3; [3]) does the source give for `CCN1CCN(Cc2ccc(Nc3ncc(F)c(-c4cc(F)c5nc6n(c5c4)CCCC6C)n3)nc2)CC1` (stereo not drawn) [Com. EX. No. 10, N-(5((4-ethylpiperazin-l-yl)methyl)pyridin-2-yl)-5-fluoro-4-(6-fluoro-4-methyl-1,2,3,4-tetrahydrobenzo[4,5]imidazo[1,2-a]pyridin-8-yl) pyrimidin-2-amine] here?
**A.** 1000 to 2000 nM

**Q.** What does the source list for `CCN1CCN(Cc2ccc(Nc3ncc(F)c(-c4cc(F)c5nc6n(c5c4)C(C)CCC6)n3)nc2)CC1` (single isomer, unassigned) [Compound 2a, N-(5-((4-ethylpiperazin-1-yl)methyl)pyridin-2-yl)-5-fluoro-4-(6-fluoro-1-methyl-1,2,3,4-tetrahydrobenzo[4,5]imidazo[1,2-a]pyridin-8-yl)pyrimidin-2-amine]?
**A.** IC50 (CDK9/cyclin T1; [4]): 779 nM; IC50 (CDK9/cyclin T1; [5]): > 400 nM; IC50 (CDK2/cyclin E; [6]): 596 nM; IC50 (CDK2/cyclin E; [7]): > 400 nM

**Q.** For `CCN1CCN(Cc2ccc(Nc3ncc(F)c(-c4cc(F)c5nc6n(c5c4)C(C)COC6)n3)nc2)CC1` (single isomer, unassigned) [Compound 16b, N-(5-((4-ethylpiperazin-1-yl)methyl)pyridin-2-yl)-5-fluoro-4-(9-fluoro-4-methyl-3,4-dihydro-1H-benzo[4,5]imidazo[2,1-c][1,4]oxazin-7-yl)pyrimidin-2-amine], which IC50 (CDK2/CycA2) is on record?
**A.** > 300 nM

**Q.** What about the “observation (mortality)” value [2] of the same compound?
**A.** −

**Q.** What about the “Body weight (weight loss)” value [2] of the same compound?
**A.** * (weight loss less than 5%)

**Q.** What does the source list for `CC[C@@H]1COCc2nc3c(F)cc(-c4nc(Nc5ccc(CN6CCN(CC)CC6)cn5)ncc4F)cc3n21` [Com. EX. 4b, (R)-4-(4-ethyl-9-fluoro-3,4-dihydro-1H-benzo[4,5]imidazo[2,1-c][1, 4]oxazin-7-yl)-N-(5-((4-ethylpiperazin-l-yl)methyl)pyridin-2-yl)-5-f luoropyimidin-2-amine]?
**A.** mice death in each group (6 mice) [2]: 5; observation (mortality) [2]: +; weight loss (in words) [2]: much more weight loss; Body weight (weight loss) [2]: *** (weight loss more than 10% and less than 30%)
